Patent US20160067246A1, “USE OF PHOSPHODIESTERASE 5A INHIBITORS FOR THE TREATMENT OF MUSCULAR DYSTROPHY” (CEDARS-SINAI MEDICAL CENTER, priority 2013, published 2016)

How the values were obtained:
Type in all cases: in vivo, human
[1] = tested on: boys with Duchenne muscular dystrophy (DMD); assay: Functional sympatholysis (LBNP, NIR spectroscopy, rest vs handgrip) with PDE5 inhibition in DMD; settings: for effect of chronic background medication on functional sympatholysis / functional ischemia in DMD: boys with DMD on chronic glucocorticoid or prophylactic cardiac treatment; for LBNP-induced ΔHbO2+MbO2 (% TLS) at rest / LBNP-induced ΔHbO2+MbO2 (% TLS) during handgrip: DMD, analysis using all 12 boys
Procedure: Forearm muscle oxygenation was measured with near-infrared (NIR) spectroscopy, as previously described.^4B Briefly, optodes were placed over the belly of the flexor digitorum profundus, the main muscle recruited during handgrip. The optodes were housed in a customized flexible rubber casing, ensuring a fixed and invariant position of the optodes relative to each other, and was secured to the skin with adhesive. The optodes were covered with an optically dense, black vinyl sheet, to minimize interference from external light or loss of NIR transmitted light. The forearm was wrapped with an elastic bandage to minimize movement of the optodes.
Before each experiment, absorption and scattering coefficients were calibrated against an external standard. After each experiment, a cuff was inflated on the upper arm to supra-systolic pressure of 200 mmHg to establish the total labile signal (TLS, the difference between the baseline and nadir in muscle tissue oxygenation). Changes in forearm tissue oxygenation were expressed as a percentage of TLS.
Handgrip exercise was performed with a dynamometer (Smedley Hand Dynamometer modified by Stoelting). To determine maximal voluntary contraction (MVC), each subject was asked to grip the dynamometer as hard as possible. […] Subjects performed intermittent isometric handgrip (20 handgrips per minute, 50% duty cycle) at 20% MVC for 7 minutes.
The subjects lower body was enclosed in a negative pressure chamber to the level of the iliac crest as previously described.^9B The pressure of the chamber was measured by a Statham transducer (Gould Inc.). Lower body negative pressure (LBNP) at −20 mmHg simulates mild orthostatic stress (that is, transition from the supine to the seated position). This technique mainly unloads the cardiopulmonary baroreceptors, producing highly reproducible reflex increases in sympathetic vasoconstrictor drive to the skeletal muscle vasculature without changing systemic blood pressure.^9B
The subjects' lower body was enclosed in a negative pressure chamber to the level of the iliac crest as previously described. The pressure in the chamber was measured by a Statham transducer (Gould Inc.). Lower body negative pressure (LBNP) at −20 to −30 mmHg simulates mild orthostatic stress caused by transition from the supine to the seated position. This technique mainly unloads the low-pressure cardiopulmonary baroreceptors, producing highly reproducible reflex increases in sympathetic vasoconstrictor drive to the skeletal muscle vasculature without changing systemic blood pressure. To measure exercise-induced attenuation of reflex vasoconstriction (i.e., functional sympatholysis), the LBNP was (i) applied at rest, and then (ii) superimposed on mild rhythmic handgrip at 20% MVC. Reflex vasoconstriction was measured as the LBNP-induced decrease in forearm muscle oxygenation by NIR spectroscopy. Using the pressure inside the LBNP chamber as a trigger, the Powerlab software was programed to mean the HbO2+MbO2 signal for 20 seconds before the onset of LBNP and for 20 seconds before the offset of LBNP; the difference between these mean values was taken as the LBNP-induced change in forearm muscle tissue oxygenation (20). Blood pressure, heart rate, and handgrip force were also recorded in response to 2 minutes of LBNP applied at rest and during the third to fifth minutes of the 7-minute exercise protocol.
Patients received 0.5 mg/kg of oral sildenafil or tadalafil on day 1, followed by 1.0 mg/kg of sildenafil or tadalafil on day 2. Patients then crossed over 2 weeks later for the opposite drug. Experiments were performed 1 hour (sildenafil) or 3 hours (tadalafil) after oral treatment to match the experiment with the peak blood level. Patients were queried about potential side-effects throughout the study visit. […]

[2] = Pharmacokinetic study and drug blood levels in boys with DMD; settings: male, human, in vivo
Procedure: Serum blood samples for pharmacokinetic determinations were collected from patients at time 0-hr, 0.25-hr, 0.5-hr, 1-hr, 2-hr, 4-hr, 8-hr, and 24-hr following each treatment (sildenafil and tadalafil) and each dose (0.5 vs. 1.0 mg/kg). Blood levels were measured with high-performance liquid chromatography-tandem mass spectrometry (NMS Labs).
Patients received 0.5 mg/kg of oral sildenafil or tadalafil on day 1, followed by 1.0 mg/kg of sildenafil or tadalafil on day 2. Patients then crossed over 2 weeks later for the opposite drug. Experiments were performed 1 hour (sildenafil) or 3 hours (tadalafil) after oral treatment to match the experiment with the peak blood level. Patients were queried about potential side-effects throughout the study visit.

[3] = tested on: boys with Duchenne muscular dystrophy (DMD); assay: Exercise-induced hyperemia: brachial artery blood flow by Doppler ultrasound and hemodynamics, rest and post handgrip; parameters: key to BA velocity: mean blood velocity in cm/s; Heart rate: unit not given here
Procedure: Subjects were studied in the supine position. Heart rate was measured continuously by electrocardiography, and blood pressure measured by automated oscillometric sphygomanometry using a child's cuff ([…] Monitor 300 Series). Brachial artery mean blood velocity (MBV) was measured from the exercising arm using pulsed-Doppler ultrasonography (Siemens iE33). Data were acquired continuously with a 9-MHz probe with a 60° angle of insonation, placed on the skin surface distal to the axilla. The ultrasound gate was optimized to ensure complete insonation of the entire vessel cross-section with constant intensity. The Doppler audio signal was converted to a real-time flow velocity signal using a validated Doppler audio converter,^8B and recorded using a PowerLab data acquisition system (ADInstruments, CO). Brachial artery diameter was measured by B-mode imaging in triplicate at rest. […] Brachial artery blood flow was calculated as MBV (cm/s)·πr^2·60, where r is radius of the brachial artery. […] exercise was performed with a dynamometer ([…] Dynamometer modified by Stoelting). To determine maximal voluntary contraction (MVC), each subject was asked to grip the dynamometer as hard as possible. […] Vascular conductance was calculated as forearm blood flow divided by mean arterial pressure. […] Patients then crossed over 2 weeks later for the opposite drug. […] Patients were queried about potential side-effects throughout the study visit. Baseline characteristics of patients and controls were compared using Student's t test. Exercise-induced attenuation of reflex vasoconstriction (functional sympatholysis) was assessed by comparing the LBNP-induced AHbO2+MbO2 (% TLS) at rest versus the LBNP-induced decrease in ΔHbO2+MbO2 during handgrip. Group differences in ΔHbO2+MbO2 were assessed using a Student's t test. The drug treatment effect on LBNP-induced Δ·HbO2+MbO2 (% TLS) at rest versus the LBNP-induced decrease in ΔHbO2+MbO2 during handgrip was compared to baseline for each patient using a Student's t test. The group difference in the % Δ in brachial artery blood flow was assessed using a student's t test. The drug treatment effect on the % Δ in brachial artery blood flow was compared using a student's t test. All analyses were performed in SigmaPlot. Data are expressed as mean±SEM, unless otherwise specified.

For `CCCCc1nc(Cl)c(CO)n1Cc1ccc(-c2ccccc2-c2nn[nH]n2)cc1` [losartan], the “effect of chronic background medication on functional sympatholysis / functional ischemia in DMD” value [1] was “does not rescue functional sympatholysis”.
In the case of `CC(=O)OCC(=O)[C@@]12N=C(C)O[C@@H]1C[C@H]1[C@@H]3CCC4=CC(=O)C=C[C@]4(C)[C@H]3[C@@H](O)C[C@@]12C` [deflazacort], the “effect of chronic background medication on functional sympatholysis / functional ischemia in DMD” value [1] is reported as “neither prednisone nor deflazacort protects dystrophic muscle from functional ischemia”.
With `CCCc1nn(C)c2c(=O)[nH]c(-c3cc(S(=O)(=O)N4CCN(C)CC4)ccc3OCC)nc12` [sildenafil] the half-life ([2]; 0.5 mg/kg) was 2.4 ± 0.09 h, the half-life ([2]; 1 mg/kg) was 3.2 ± 0.5 h and the “time after ingestion at which blood level had returned close to baseline” value ([2]; po) was 4 h. The peak blood level ([2]; po, 0.5 mg/kg) was 82.5 ± 26.6 ng/mL, the peak blood level ([2]; po, 1 mg/kg) was 167.5 ± 34.1 ng/mL and the “restoration of functional sympatholysis in DMD (in words)” value ([1]; 6 patients with DMD, 0.5 and 1.0 mg/kg) was “equally restores functional sympatholysis”. For the same compound, the “LBNP-induced ΔHbO2+MbO2 (% TLS) at rest” value ([1]; 0.5 mg/kg oral) was −18±4%, the “LBNP-induced ΔHbO2+MbO2 (% TLS) during handgrip” value ([1]; 0.5 mg/kg oral) was −10±3% and the “LBNP-induced ΔHbO2+MbO2 (% TLS) at rest” value ([1]; 1.0 mg/kg oral) was −20±3%. The “LBNP-induced ΔHbO2+MbO2 (% TLS) during handgrip” value ([1]; 1.0 mg/kg oral) was −1±3%, the “BA VC (vascular conductance)” value ([3]; 0.5 mg/kg, Post-exercise) was 2.3 ± 0.3 ml/min/mmHg and the BA blood flow ([3]; 0.5 mg/kg, Post-exercise) was 172 ± 18 mL/min. For the same compound, the BA velocity ([3]; 0.5 mg/kg, Post-exercise) was 32 ± 3, the Heart rate ([3]; 0.5 mg/kg, Post-exercise) was 88 ± 6 and the MAP ([3]; 0.5 mg/kg, Post-exercise) was 75 ± 2 mmHg. For the same compound, the “BA VC (vascular conductance)” value ([3]; 0.5 mg/kg, Rest) was 1.7 ± 0.3 ml/min/mmHg, the BA blood flow ([3]; 0.5 mg/kg, Rest) was 125 ± 19 mL/min and the BA velocity ([3]; 0.5 mg/kg, Rest) was 24 ± 4. For the same compound, the Heart rate ([3]; 0.5 mg/kg, Rest) was 84 ± 5, the MAP ([3]; 0.5 mg/kg, Rest) was 77 ± 6 mmHg and the “BA VC (vascular conductance)” value ([3]; 1.0 mg/kg, Post-exercise) was 2.7 ± 0.3 ml/min/mmHg. It also gave a BA blood flow ([3]; 1.0 mg/kg, Post-exercise) of 196 ± 22 mL/min, a BA velocity ([3]; 1.0 mg/kg, Post-exercise) of 37 ± 3 and a Heart rate ([3]; 1.0 mg/kg, Post-exercise) of 93 ± 5. For the same compound, the MAP ([3]; 1.0 mg/kg, Post-exercise) was 74 ± 2 mmHg, the “BA VC (vascular conductance)” value ([3]; 1.0 mg/kg, Rest) was 1.9 ± 0.3 ml/min/mmHg and the BA blood flow ([3]; 1.0 mg/kg, Rest) was 137 ± 21 mL/min. For the same compound, the BA velocity ([3]; 1.0 mg/kg, Rest) was 27 ± 5, the Heart rate ([3]; 1.0 mg/kg, Rest) was 92 ± 5 and the MAP ([3]; 1.0 mg/kg, Rest) was 74 ± 2 mmHg.
For `NCCCC[C@H](N[C@@H](CCc1ccccc1)C(=O)O)C(=O)N1CCC[C@H]1C(=O)O` [lisinopril], the “effect of chronic background medication on functional sympatholysis / functional ischemia in DMD” value [1] was “does not rescue functional sympatholysis”.
For `C[C@]12C=CC(=O)C=C1CC[C@@H]1[C@@H]2C(=O)C[C@@]2(C)[C@H]1CC[C@]2(O)C(=O)CO` [prednisone], the “effect of chronic background medication on functional sympatholysis / functional ischemia in DMD” value [1] was “neither prednisone nor deflazacort protects dystrophic muscle from functional ischemia”.
